From publication PMC5218480 (PLoS ONE, 2017)

Tested on: MV-4-11 cells
Test: Gene expression microarray analysis (Affymetrix PrimeView) and GSEA
Type: cell-based, human
Parameters: RFU PODN (11730768_x_at) / Fold change /veh PODN (11730768_x_at) / RFU LINC00158 (11744669_a_at) / Fold change /veh LINC00158 (11744669_a_at) / RFU DUSP10 (11751237_a_at) / Fold change /veh DUSP10 (11751237_a_at) / RFU ID3 (11757404_x_at) / Fold change /veh ID3 (11757404_x_at) / RFU PLEKHG5 (11737974_s_at) / Fold change /veh PLEKHG5 (11737974_s_at) / RFU LRRC4B (11730491_at) / Fold change /veh LRRC4B (11730491_at) / RFU GIMAP4 (11747438_a_at) / Fold change /veh GIMAP4 (11747438_a_at) / RFU KRT8 (11758183_x_at) / Fold change /veh KRT8 (11758183_x_at) / RFU CNN1 (11734310_a_at) / Fold change /veh CNN1 (11734310_a_at) / RFU VPS37D (11726825_at) / Fold change /veh VPS37D (11726825_at) / RFU C10orf10 (11716522_x_at) / Fold change /veh C10orf10 (11716522_x_at) / RFU KIR2DL2 /// KIR2DL4 /// KIR2DL5A /// KIR2DL5B /// KIR2DS1 /// KIR2DS2 /// KIR2DS3 /// KIR2DS4 /// KIR3DL3 /// KIR3DL3 /// KIR3DS1 (11738374_at) / Fold change /veh KIR2DL2 /// KIR2DL4 /// KIR2DL5A /// KIR2DL5B /// KIR2DS1 /// KIR2DS2 /// KIR2DS3 /// KIR2DS4 /// KIR3DL3 /// KIR3DL3 /// KIR3DS1 (11738374_at) / RFU C1QL1 (11718748_at) / Fold change /veh C1QL1 (11718748_at) / RFU TMPRSS4 (11747572_a_at) / Fold change /veh TMPRSS4 (11747572_a_at) / RFU HAMP (11756126_x_at) / Fold change /veh HAMP (11756126_x_at) / RFU RNFT2 (11725882_a_at) / Fold change /veh RNFT2 (11725882_a_at) / RFU NR4A2 (11747474_a_at) / Fold change /veh NR4A2 (11747474_a_at) / RFU ABCC12 (11746883_a_at) / Fold change /veh ABCC12 (11746883_a_at) / RFU TMEM136 (11760407_x_at) / Fold change /veh TMEM136 (11760407_x_at) / RFU CLDN22 /// WWC2 (11732394_at) / Fold change /veh CLDN22 /// WWC2 (11732394_at) / RFU HLA-DPB1 (11760878_x_at) / Fold change /veh HLA-DPB1 (11760878_x_at) / RFU SPINT1 (11716480_a_at) / Fold change /veh SPINT1 (11716480_a_at) / RFU GAP43 (11754022_s_at) / Fold change /veh GAP43 (11754022_s_at) / RFU A4GNT (11735810_at) / Fold change /veh A4GNT (11735810_at) / RFU PRB3 (11715151_x_at) / Fold change /veh PRB3 (11715151_x_at) / RFU TUBB4B (11761932_at) / Fold change /veh TUBB4B (11761932_at) / RFU CAPN14 (11732068_a_at) / Fold change /veh CAPN14 (11732068_a_at) / RFU TMCC2 (11721928_a_at) / Fold change /veh TMCC2 (11721928_a_at) / RFU IRGQ (11745062_a_at) / Fold change /veh IRGQ (11745062_a_at) / RFU FAM174B (11720279_a_at) / Fold change /veh FAM174B (11720279_a_at) / RFU TMPRSS4 (11748680_a_at) / Fold change /veh TMPRSS4 (11748680_a_at) / RFU FAM212B (11763350_a_at) / Fold change /veh FAM212B (11763350_a_at) / RFU PLEKHG5 (11743358_a_at) / Fold change /veh PLEKHG5 (11743358_a_at) / RFU ZSCAN30 (11745921_a_at) / Fold change /veh ZSCAN30 (11745921_a_at) / RFU CMKLR1 (11741424_a_at) / Fold change /veh CMKLR1 (11741424_a_at) / RFU LOC101060620 /// MAPK8IP1 (11723275_at) / Fold change /veh LOC101060620 /// MAPK8IP1 (11723275_at) / RFU SPTSSB (11747773_x_at) / Fold change /veh SPTSSB (11747773_x_at) / RFU PRSS12 (11739890_at) / Fold change /veh PRSS12 (11739890_at) / RFU BIN1 (11741810_x_at) / Fold change /veh BIN1 (11741810_x_at) / RFU WNT11 (11732464_a_at) / Fold change /veh WNT11 (11732464_a_at) / RFU C10orf10 (11716521_a_at) / Fold change /veh C10orf10 (11716521_a_at) / RFU C5orf56 (11738089_at) / Fold change /veh C5orf56 (11738089_at) / RFU CYB561 (11721691_x_at) / Fold change /veh CYB561 (11721691_x_at) / RFU ANKRD19P (11752326_a_at) / Fold change /veh ANKRD19P (11752326_a_at) / RFU OR2T12 /// OR2T33 /// OR2T8 (11738714_s_at) / Fold change /veh OR2T12 /// OR2T33 /// OR2T8 (11738714_s_at) / RFU VCAN (11748164_a_at) / Fold change /veh VCAN (11748164_a_at) / RFU JSRP1 (11732532_at) / Fold change /veh JSRP1 (11732532_at) / RFU KRTAP10-11 (11738290_x_at) / Fold change /veh KRTAP10-11 (11738290_x_at) / RFU MYO3A (11730013_a_at) / Fold change /veh MYO3A (11730013_a_at) / RFU EBF3 (11725865_a_at) / Fold change /veh EBF3 (11725865_a_at) / RFU CAMK2N1 (11719241_x_at) / Fold change /veh CAMK2N1 (11719241_x_at) / RFU C5orf56 (11738088_a_at) / Fold change /veh C5orf56 (11738088_a_at) / RFU OLFML3 (11715873_a_at) / Fold change /veh OLFML3 (11715873_a_at) / RFU LOC100653217 /// NTM (11731650_a_at) / Fold change /veh LOC100653217 /// NTM (11731650_a_at) / RFU MAPK11 (11762145_a_at) / Fold change /veh MAPK11 (11762145_a_at) / RFU FIZ1 (11724087_x_at) / Fold change /veh FIZ1 (11724087_x_at) / RFU OASL (11726364_x_at) / Fold change /veh OASL (11726364_x_at) / RFU SOX15 (11748057_x_at) / Fold change /veh SOX15 (11748057_x_at) / RFU CD79A (11719716_a_at) / Fold change /veh CD79A (11719716_a_at) / RFU HIST1H1D (11736915_at) / Fold change /veh HIST1H1D (11736915_at) / RFU CASKIN2 (11723855_a_at) / Fold change /veh CASKIN2 (11723855_a_at) / RFU LOC730098 (11760151_x_at) / Fold change /veh LOC730098 (11760151_x_at) / RFU OR4N2 (11742367_at) / Fold change /veh OR4N2 (11742367_at) / RFU PRRT2 (11749266_a_at) / Fold change /veh PRRT2 (11749266_a_at) / RFU SNX32 (11753110_a_at) / Fold change /veh SNX32 (11753110_a_at) / RFU CDHR5 (11726645_a_at) / Fold change /veh CDHR5 (11726645_a_at) / RFU RCAN1 (11760418_a_at) / Fold change /veh RCAN1 (11760418_a_at) / RFU FAM167A (11723789_a_at) / Fold change /veh FAM167A (11723789_a_at) / RFU FAM26E (11764081_at) / Fold change /veh FAM26E (11764081_at) / RFU ISYNA1 (11749810_s_at) / Fold change /veh ISYNA1 (11749810_s_at) / RFU ACY1 (11761880_at) / Fold change /veh ACY1 (11761880_at) / RFU 11764098_at / Fold change /veh 11764098_at / RFU SAMD14 (11745864_x_at) / Fold change /veh SAMD14 (11745864_x_at) / RFU NPB (11741838_a_at) / Fold change /veh NPB (11741838_a_at) / RFU TMPRSS6 (11731388_a_at) / Fold change /veh TMPRSS6 (11731388_a_at) / RFU KRTAP10-2 (11738614_at) / Fold change /veh KRTAP10-2 (11738614_at) / RFU ARHGAP8 /// PRR5-ARHGAP8 (11727945_x_at) / Fold change /veh ARHGAP8 /// PRR5-ARHGAP8 (11727945_x_at) / RFU KRTAP5-7 /// NADSYN1 (11734609_at) / Fold change /veh KRTAP5-7 /// NADSYN1 (11734609_at) / RFU RASL12 (11751679_a_at) / Fold change /veh RASL12 (11751679_a_at) / RFU CDKN2B (11736163_a_at) / Fold change /veh CDKN2B (11736163_a_at) / RFU PRF1 (11729649_at) / Fold change /veh PRF1 (11729649_at) / RFU, ZNF638 /// ZNF638-IT1 / Fold change vs veh, ZNF638 /// ZNF638-IT1 / RFU, PANK3 / Fold change vs veh, PANK3 / RFU, SH3YL1 / Fold change vs veh, SH3YL1 / RFU, ZEB2 / Fold change vs veh, ZEB2 / RFU, NRIP1 / Fold change vs veh, NRIP1 / RFU, PTTG1IP / Fold change vs veh, PTTG1IP / RFU, CAPN2 / Fold change vs veh, CAPN2 / RFU, MED14 / Fold change vs veh, MED14 / RFU, SNORA58 / Fold change vs veh, SNORA58 / RFU, C1orf63 / Fold change vs veh, C1orf63 / RFU, LRRFIP1 / Fold change vs veh, LRRFIP1 / RFU, NDUFAF7 / Fold change vs veh, NDUFAF7 / RFU, SLC12A2 / Fold change vs veh, SLC12A2 / RFU, IBTK / Fold change vs veh, IBTK / RFU, ESF1 / Fold change vs veh, ESF1 / Fold change vs veh, TMEM50B / RFU, TAOK1 / Fold change vs veh, TAOK1 / RFU, ACBD3 / Fold change vs veh, ACBD3 / RFU, TMA16 / Fold change vs veh, TMA16 / RFU, RWDD3 / Fold change vs veh, RWDD3 / RFU, BCAT1 / Fold change vs veh, BCAT1 / RFU, EDEM3 / Fold change vs veh, EDEM3 / RFU, TMEM33 / Fold change vs veh, TMEM33 / RFU, WDR75 / Fold change vs veh, WDR75 / RFU, AHCTF1 / Fold change vs veh, AHCTF1 / RFU, TFRC / Fold change vs veh, TFRC / RFU, ZDHHC17 / Fold change vs veh, ZDHHC17 / RFU, NOM1 / Fold change vs veh, NOM1 / RFU, ARL8B / Fold change vs veh, ARL8B / RFU, ZBTB11 / Fold change vs veh, ZBTB11 / RFU, TAMM41 / Fold change vs veh, TAMM41 / RFU, KIAA1704 /// LOC100996395 / Fold change vs veh, KIAA1704 /// LOC100996395 / RFU, ING1 / Fold change vs veh, ING1 / RFU, TRMT61B / Fold change vs veh, TRMT61B / RFU, FUBP3 / Fold change vs veh, FUBP3 / RFU, TP53 / Fold change vs veh, TP53 / RFU, TNKS2 / Fold change vs veh, TNKS2 / RFU, ZFP14 / Fold change vs veh, ZFP14 / RFU, ACTR2 / Fold change vs veh, ACTR2 / RFU, PPP3R1 / Fold change vs veh, PPP3R1 / RFU, PIK3R1 / Fold change vs veh, PIK3R1 / RFU, HNRNPA1 / Fold change vs veh, HNRNPA1 / RFU, RNF170 / Fold change vs veh, RNF170 / RFU, ZNF28 / Fold change vs veh, ZNF28 / RFU, RNGTT / Fold change vs veh, RNGTT / RFU, OGT / Fold change vs veh, OGT / RFU, BRD1 / Fold change vs veh, BRD1 / RFU, MARS / Fold change vs veh, MARS / RFU, ZNF655 / Fold change vs veh, ZNF655 / RFU, FAHD1 / Fold change vs veh, FAHD1 / RFU, BDP1 / Fold change vs veh, BDP1 / RFU, LRRCC1 / Fold change vs veh, LRRCC1 / RFU, ARID1A / Fold change vs veh, ARID1A / RFU, ZNF146 / Fold change vs veh, ZNF146 / RFU, ZNF330 / Fold change vs veh, ZNF330 / RFU, GPN3 / Fold change vs veh, GPN3 / RFU, C9orf123 / Fold change vs veh, C9orf123 / RFU, N4BP2L2 / Fold change vs veh, N4BP2L2 / RFU, ARFIP1 / Fold change vs veh, ARFIP1 / RFU, FAM179B / Fold change vs veh, FAM179B / RFU, BCL10 / Fold change vs veh, BCL10 / RFU, UHRF1BP1L / Fold change vs veh, UHRF1BP1L / RFU, BET1 / Fold change vs veh, BET1 / RFU, CNOT2 / Fold change vs veh, CNOT2 / RFU, ZNF268 / Fold change vs veh, ZNF268 / Fold change vs veh, ZNF507 / RFU, DGCR2 / Fold change vs veh, DGCR2 / RFU, WDSUB1 / Fold change vs veh, WDSUB1 / Fold change vs veh, HSP90B1 /// MIR3652 / RFU, ADSS / Fold change vs veh, ADSS / RFU, GK / Fold change vs veh, GK / RFU, ZNF148 / Fold change vs veh, ZNF148 / RFU, TAF9 / Fold change vs veh, TAF9 / RFU, SLC1A5 / Fold change vs veh, SLC1A5 / RFU, SLMO2 / Fold change vs veh, SLMO2 / RFU, ABCC4 / Fold change vs veh, ABCC4 / RFU, LOC101060439 /// RAP1B / Fold change vs veh, LOC101060439 /// RAP1B / RFU, RFX7 / Fold change vs veh, RFX7 / RFU, GTPBP10 / Fold change vs veh, GTPBP10 / RFU, CNEP1R1 / Fold change vs veh, CNEP1R1 / RFU, BIVM-ERCC5 /// ERCC5 / Fold change vs veh, BIVM-ERCC5 /// ERCC5 / RFU, ILF3 / Fold change vs veh, ILF3 / RFU 11762660_at / Fold change /veh 11762660_at / RFU VCAN (11757783_s_at) / Fold change /veh VCAN (11757783_s_at) / RFU DDX43 (11728927_at) / Fold change /veh DDX43 (11728927_at) / RFU KRT8 (11758188_x_at) / Fold change /veh KRT8 (11758188_x_at) / RFU NKD1 (11759106_at) / Fold change /veh NKD1 (11759106_at) / RFU SRD5A1 (11742802_a_at) / Fold change /veh SRD5A1 (11742802_a_at) / RFU TPSAB1 /// TPSB2 (11721975_s_at) / Fold change /veh TPSAB1 /// TPSB2 (11721975_s_at) / RFU GSTM3 (11746129_a_at) / Fold change /veh GSTM3 (11746129_a_at) / RFU IL23R (11737362_x_at) / Fold change /veh IL23R (11737362_x_at) / RFU TMEM51 (11727254_a_at) / Fold change /veh TMEM51 (11727254_a_at) / RFU PIWIL2 (11732686_x_at) / Fold change /veh PIWIL2 (11732686_x_at) / RFU ORM1 (11744905_x_at) / Fold change /veh ORM1 (11744905_x_at) / RFU CCDC152 (11743942_at) / Fold change /veh CCDC152 (11743942_at) / RFU ECM1 (11717891_a_at) / Fold change /veh ECM1 (11717891_a_at) / RFU IL23R (11748794_a_at) / Fold change /veh IL23R (11748794_a_at) / RFU TNFAIP8L3 (11732012_x_at) / Fold change /veh TNFAIP8L3 (11732012_x_at) / RFU MBOAT4 (11741988_at) / Fold change /veh MBOAT4 (11741988_at) / RFU 11764193_at / Fold change /veh 11764193_at / RFU TMEM53 (11763286_at) / Fold change /veh TMEM53 (11763286_at) / RFU MAGEB2 (11727129_at) / Fold change /veh MAGEB2 (11727129_at) / RFU TMEM200A (11744735_a_at) / Fold change /veh TMEM200A (11744735_a_at) / RFU CCDC152 (11751479_a_at) / Fold change /veh CCDC152 (11751479_a_at) / RFU FAM211A (11726209_a_at) / Fold change /veh FAM211A (11726209_a_at) / RFU RGS16 (11746705_a_at) / Fold change /veh RGS16 (11746705_a_at) / RFU VCAN (11755009_s_at) / Fold change /veh VCAN (11755009_s_at) / RFU RHOB (11743442_s_at) / Fold change /veh RHOB (11743442_s_at) / RFU RGS16 (11720943_a_at) / Fold change /veh RGS16 (11720943_a_at) / RFU RGS16 (11720944_at) / Fold change /veh RGS16 (11720944_at) / RFU, VPS4B / Fold change vs veh, VPS4B / RFU, CREB1 / Fold change vs veh, CREB1 / RFU, DNAJC13 / Fold change vs veh, DNAJC13 / RFU, GNAQ / Fold change vs veh, GNAQ / RFU, CDK5R1 / Fold change vs veh, CDK5R1 / RFU, ZRANB3 / Fold change vs veh, ZRANB3 / RFU, CUL4A / Fold change vs veh, CUL4A / RFU, CCNY / Fold change vs veh, CCNY / RFU, UFL1 / Fold change vs veh, UFL1 / RFU, COG3 / Fold change vs veh, COG3 / RFU, DIAPH2 / Fold change vs veh, DIAPH2 / RFU, SKA2 / Fold change vs veh, SKA2 / RFU, AFF3 / Fold change vs veh, AFF3 / RFU, LMF1 / Fold change vs veh, LMF1 / RFU, IPO11 / Fold change vs veh, IPO11 / RFU, DFFB / Fold change vs veh, DFFB / RFU, FOXP1 / Fold change vs veh, FOXP1 / RFU, CARD8 / Fold change vs veh, CARD8 / RFU, STRN3 / Fold change vs veh, STRN3 / RFU, ADK / Fold change vs veh, ADK / RFU, RASSF2 / Fold change vs veh, RASSF2 / RFU, WIPF1 / Fold change vs veh, WIPF1 / RFU, LARP1B / Fold change vs veh, LARP1B / RFU, RASA1 / Fold change vs veh, RASA1 / RFU, RB1 / Fold change vs veh, RB1 / RFU, PPFIA1 / Fold change vs veh, PPFIA1 / RFU, MAT2A / Fold change vs veh, MAT2A / RFU, CCT5 / Fold change vs veh, CCT5 / RFU, WDR92 / Fold change vs veh, WDR92 / RFU, CUX1 / Fold change vs veh, CUX1 / RFU, TTC7A / Fold change vs veh, TTC7A / RFU, TMEM135 / Fold change vs veh, TMEM135 / RFU, DEPTOR / Fold change vs veh, DEPTOR / RFU, CPM / Fold change vs veh, CPM / RFU, DNAJB6 / Fold change vs veh, DNAJB6 / RFU, CACNA2D3 / Fold change vs veh, CACNA2D3 / RFU, DTX4 / Fold change vs veh, DTX4 / RFU, TFCP2 / Fold change vs veh, TFCP2 / RFU, GMCL1 /// GMCL1P1 / Fold change vs veh, GMCL1 /// GMCL1P1 / RFU, AEBP2 / Fold change vs veh, AEBP2 / RFU, SNHG1 /// SNORD22 /// SNORD25 /// SNORD26 /// SNORD27 /// SNORD28 /// SNORD29 /// SNORD31 / Fold change vs veh, SNHG1 /// SNORD22 /// SNORD25 /// SNORD26 /// SNORD27 /// SNORD28 /// SNORD29 /// SNORD31 / Fold change (Aza/veh), C12orf56 (ProbeSet 11735607_a_at) / Fold change (ACY-1035/veh), C12orf56 (ProbeSet 11735607_a_at) / Fold change (Aza/veh), FGFR1OP (ProbeSet 11751329_s_at) / Fold change (ACY-1035/veh), FGFR1OP (ProbeSet 11751329_s_at) / Fold change (Aza/veh), VPS36 (ProbeSet 11739960_a_at) / Fold change (ACY-1035/veh), VPS36 (ProbeSet 11739960_a_at) / RFU SYPL1 (11715823_x_at) / Fold change /veh SYPL1 (11715823_x_at) / RFU IGFBP7 (11715501_s_at) / Fold change /veh IGFBP7 (11715501_s_at) / RFU REEP3 (11722064_at) / Fold change /veh REEP3 (11722064_at) / RFU IGLL1 (11728026_x_at) / Fold change /veh IGLL1 (11728026_x_at): dose or concentration left out as unconfirmed
Conditions: ProbeSet 11717308_a_at; LIST B

With `Nc1ncn([C@@H]2O[C@H](CO)[C@@H](O)[C@H]2O)c(=O)n1` [azacitidine] the “RFU, WDR75” value was 348.11 RFU.
